Assay results published in patent US11918568B2, “Fused ring compound having urea structure” (DAIICHI SANKYO COMPANY, LIMITED, priority 2018, dated 2024).
“Also recorded” adds a separate entry of the source.

Assays:
[1] = molecular target: human NAMPT enzyme (Homo sapiens (Human), UniProt P43490); assay: NAMPT enzyme activating effect (in vitro cell-free enzyme assay); type: biochemical; settings: 2 ng/mL human NAMPT enzyme, 1-h incubation at 25° C., fluorescence of NMN derivative
Method: The NAMPT enzyme assay was conducted in accordance with the method of Formentini et al. […] Hereinafter, the procedures will be briefly described. The NAMPT enzyme reaction was carried out using polypropylene 384 well V shaped black plate (Greiner Bio One International GmbH). […] Then, 22 μL of 88% formic acid was added and the mixture was further incubated for 30 min in the dark. The NAMPT enzyme activity was calculated as the difference between fluorescence intensity (Ex 380 nm/Em 450 nm) from the reaction of a test compound treatment group and fluorescence intensity from control reaction free from the NAMPT enzyme. [NAMPT enzyme activity]=[Fluorescence intensity of the test substance treatment group]−[Mean fluorescence intensity of the control reaction free from the NAMPT enzyme] EC50 value of each compound was calculated from the enzyme activities of the compound at various concentrations by using GraphPad Prism software (GraphPad Software) (Table 1)

[2] = system: HEK293A cells; assay: Effect of NAMPT activator on the intracellular NAD+ level (in vitro cell-based assay); settings: HEK293-A, 3 h culture with compound, NAD+/NADH-Glo assay, read-out: EC50 (intracellular NAD+ content)
Method: HEK293A cells were cultured in Dulbecco's Modified Eagle Medium (DMEM (high glucose)) containing 10% fetal bovine serum (FBS), non-essential amino acid (NEAA), and antibiotic-antimycotic [reaction medium]. On the day before the test, HEK293A cells were inoculated at a ratio of 3.0×10^4 cells/80 μL to 96 well poly-D-lysine coated plate and cultured overnight in a CO2 incubator.
On the day of the test, each test compound diluted with reaction medium to a concentration of 5 times the final concentration was added at a ratio of 20 μL/well, and the cells were further cultured for 3 h. After removal of the medium, the cells were lysed in 50 μL/well of Bicarbonate Base Buffer (100 mM sodium carbonate, 20 mM sodium bicarbonate, 100 mM nicotinamide, 20 mM Triton X-100) containing 1% dodecyl trimethyl-ammonium bromide (DTAB). The NAD^+ content in the cell extract was measured using NAD^+/NADH-Glo assay kit according to the manufacturer's instructions. Hereinafter, the procedures will be briefly described. 20 μL of the lysate was separated, and 10 μL of 0.4 N HCL was added thereto, followed by incubation at 60° C. for 15 min and subsequently at 25° C. for 10 min. The mixture was neutralized by the addition of 10 μL of 0.5 M Trizma base solution and then diluted 10-fold with distilled water. 15 μL of the diluted sample was mixed with an equal amount (15 μL) of NAD^+/NADH-Glo reagent in 384 well black plate, and the mixture was incubated for 30 min in the dark. Then, chemiluminescence intensity was measured.
EC50 value of each compound was calculated from the calculated values of the compound at various concentrations using GraphPad Prism software (Table 2).

[3] = system: C57BL/6N mice; assay: Tissue NAD+ level in normal mice; type: in vivo, mouse; settings: normal C57BL/6N mice, 30 or 100 mg/kg orally, 24 h after administration, LC/MS
Method: (§1) 24 h after the administration, each mouse was sacrificed by exsanguination. The liver, gastrocnemius, soleus, and brown adipose tissues were harvested. Each tissue was homogenized with a 10- or 100-fold amount of 2 M perchloric acid per its weight. Then, the samples were centrifuged and the supernatant was neutralized with 5 M […]. After removal of potassium perchlorate, the NAD^+ concentration in the supernatant of sample was measured using LC/MS.

[4] = system: C57BL/6N DIO mice; assay: Tissue NAD+ level in diet-induced obese (DIO) mice; type: in vivo, mouse; settings: 30 or 100 mg/kg orally, 24 h after administration, LC/MS
Method: as §1

[5] = system: C57BL/6N DIO mice; assay: Energy expenditure in DIO mouse (oxygen consumption); type: in vivo; settings: 100 mg/kg orally once a day, vs vehicle group
Method: 48-week-old male C57BL/6N DIO mice were divided into 2 groups each involving 4 mice. Each mouse was acclimatized for 3 d under individual housing and then fasted overnight. […] Oxygen consumptions (VO2) and carbon dioxide outputs (VCO2) were measured for approximately 73 h (approximately 9 h under fasting (on the order of 9:00 to 18:00) and approximately 64 h under feeding (on the order of 18:00 to 10:00 of two days later)) using Comprehensive Lab Animal Monitoring System (Columbus Instruments International Corp.).

[6] = system: C57BL/6N DIO mice; assay: Anti-obesity effect (DIO mouse, free feeding); type: in vivo; settings: DIO mice freely fed high-fat diet, 30 mg/kg orally once a day for 3 wk, vs vehicle group
Excerpt: 45-week-old male C57BL/6N DIO mice were each acclimatized for 1 wk under individual housing. Then, the mice were divided into 2 groups each involving 6 mice with their weights, amounts of weight change, and food intakes during the acclimatization period as indexes. Each mouse was freely fed a purified high-fat diet (D12451) for 3 wk under individual rearing. […] The weight was compared between the test groups.

[7] = system: C57BL/6N DIO mice; assay: Tissue NAD+ level in DIO mouse - 2 (major tissues); type: in vivo; settings: 30 mg/kg orally, 24 h after administration, LC/MS
Method: as §1, with “exanguination.” for “exsanguination.”, “heart, kidney, spleen, lung,” for “liver, gastrocnemius, soleus,”, “white” for “brown”, “harvested. For a control, the same organs as above were harvested from 8-week-old male C57BL/6N mice.” for “harvested.”

[8] = system: C57BL/6N mice; assay: NAD+ level in retina (normal mouse); type: in vivo; settings: normal C57BL/6N mice, 30 mg/kg orally, 4 h after administration, LC/MS
Method: 4 h after the administration, each mouse was sacrificed by exanguination. The retina was harvested from both eyes. The retina (4 eye pools per sample) was homogenized with a 100-fold amount of 2 M perchloric acid per retinal tissue weight. Then, the samples were centrifuged and the supernatant was neutralized with 5 M […]. After removal of potassium perchlorate, the NAD^+ concentration in the supernatant sample was measured using LC/MS.

[9] = system: WKY rats; settings: 5 mg/kg intraperitoneally 0.5 h before Main FST, vs vehicle control

human NAMPT enzyme, sequence (P43490 whole entry): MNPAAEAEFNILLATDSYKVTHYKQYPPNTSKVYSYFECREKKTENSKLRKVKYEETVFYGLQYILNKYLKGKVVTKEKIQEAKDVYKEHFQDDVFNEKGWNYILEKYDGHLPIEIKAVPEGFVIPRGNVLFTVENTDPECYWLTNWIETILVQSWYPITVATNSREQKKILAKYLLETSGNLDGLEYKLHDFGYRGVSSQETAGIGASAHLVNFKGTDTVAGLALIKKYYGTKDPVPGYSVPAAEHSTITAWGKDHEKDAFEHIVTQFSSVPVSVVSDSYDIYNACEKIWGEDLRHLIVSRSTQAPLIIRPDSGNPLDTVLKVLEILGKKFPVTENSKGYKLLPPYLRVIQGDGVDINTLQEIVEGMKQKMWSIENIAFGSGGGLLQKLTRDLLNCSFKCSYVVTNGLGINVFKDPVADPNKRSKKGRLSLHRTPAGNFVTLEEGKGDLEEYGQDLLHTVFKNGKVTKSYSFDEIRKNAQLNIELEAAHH

Structure (SMILES): Cc1ccccc1-c1nc2ccc(NC(=O)NCc3ccncc3)cc2o1 [Example 1, N-[2-(2-Methylphenyl)-1,3-benzoxazol-6-yl]-N′-[(pyridin-4-yl)methyl]urea]
- EC50 [1]: 110 nM
- EC50 [2]: 430 nM

Structure (SMILES): O=C(NCc1ccncc1)Nc1ccc2nc(-c3ccccc3)oc2c1 [Example 2, N-(2-Phenyl-1,3-benzoxazol-6-yl)-N′-[(pyridin-4-yl)methyl]urea]
- EC50 [1]: 50 nM
- EC50 [2]: 190 nM
- NAD+ levels in liver, gastrocnemius, soleus, and brown adipose tissues [3]: increases NAD^+ levels
- NAD+ levels in liver, gastrocnemius, soleus, and brown adipose tissues [4]: increases NAD^+ levels
- oxygen consumption (VO2) per weight [5]: increased an oxygen consumption per weight; also recorded: increases oxygen consumption
- body weight change [6]: weight lowering effect; also recorded: decreases body weights
- NAD+ levels in major tissues (heart, kidney, spleen, lung, white adipose tissue) [7]: NAD^+ levels were increased; also recorded: increases NAD^+ levels
- NAD+ levels in retina [8]: NAD^+ levels were increased; also recorded: increases NAD^+ levels

Structure (SMILES): O=C(NCc1ccncc1)Nc1ccc2oc(-c3ccccc3)nc2c1 [Example 7, N-(2-Phenyl-1,3-benzoxazol-5-yl)-N′-[(pyridin-4-yl)methyl]urea]
- EC50 [1]: 410 nM
- EC50 [2]: 540 nM

Structure (SMILES): O=C(NCc1ccncc1)Nc1ccc2nc(-c3ccccc3)nn2c1 [Example 8, N-(2-Phenyl[1,2,4]triazolo[1,5-a]pyridin-6-yl)-N′-[(pyridin-4-yl)methyl]urea]
- EC50 [1]: 80 nM
- EC50 [2]: 210 nM

Structure (SMILES): N#Cc1c2ccc(NC(=O)NCc3ccncc3)cc2nn1-c1ccccc1 [Example 21, N-(3-Cyano-2-phenyl-2H-indazol-6-yl)-N′-[(pyridin-4-yl)methyl]urea]
- EC50 [1]: 110 nM
- EC50 [2]: 230 nM

Structure (SMILES): Cn1nccc1-c1c(-c2ccccc2)nn2cc(NC(=O)NCc3ccncc3)ccc12 [Example 22, N-[3-(1-Methyl-1H-pyrazol-5-yl)-2-phenylpyrazolo[1,5-a]pyridin-6-yl]-N′-[(pyridin-4-yl)methyl]urea]
- EC50 [1]: 80 nM
- EC50 [2]: 120 nM

Structure (SMILES): CCN(CC)C(=O)c1noc2cc(NC(=O)NCc3ccncc3)ccc12 [Example 50, N,N-Diethyl-6-({[(pyridin-4-yl)methyl]carbamoyl}amino)-1,2-benzoxazole-3-carboxamide]
- EC50 [1]: 240 nM
- EC50 [2]: 450 nM

Structure (SMILES): COc1cccc(C2Cc3ccc(NC(=O)NCc4ccncc4)cc3O2)c1 (centres unmarked) [Example 52, N-[2-(3-Methoxyphenyl)-2,3-dihydro-1-benzofuran-6-yl]-N′-[(pyridin-4-yl)methyl]urea]
- EC50 [1]: 80 nM
- EC50 [2]: 1240 nM

Structure (SMILES): CCN(CC)C(=O)c1coc2cc(NC(=O)NCc3ccncc3)ccc12 [Example 55, N,N-Diethyl-6-({[(pyridin-4-yl)methyl]carbamoyl}amino)-1-benzofuran-3-carboxamide]
- EC50 [1]: 490 nM

Structure (SMILES): CCN(Cc1ccccc1)C(=O)c1noc2cc(NC(=O)NCc3ccncc3)ccc12 [Example 56, N-Benzyl-N-ethyl-6-({[(pyridin-4-yl)methyl]carbamoyl}amino)-1,2-benzoxazole-3-carboxamide]
- EC50 [1]: 30 nM

Structure (SMILES): O=C(NCc1ccncc1)Nc1ccc2c(C(=O)N3CC4CCC(C3)O4)noc2c1 [Example 57, N-[3-(8-Oxa-3-azabicyclo[3.2.1]octane-3-carbonyl)-1,2-benzoxazol-6-yl]-N′-[(pyridin-4-yl)methyl]urea]
- EC50 [1]: 190 nM

Structure (SMILES): CNC1(c2ccccc2Cl)CCCCC1=O (centres unmarked) [ketamine, Ketamine, reference compound]
- immobility time in forced swimming test [9]: significantly shortened the immobility time
